According to patent US20150274719A1, “AMINO-SUBSTITUTED IMIDAZO[1,2-A]PYRIDINECARBOXAMIDES AND THEIR USE” (BAYER PHARMA AKTIENGESELLSCHAFT, priority 2012, published 2015):

molecular target: T1, recombinant guanylate cyclase reporter cell line (Rattus norvegicus, UniProt P19686+P20595); assay: Action on recombinant guanylate cyclase reporter cell line; assay type: cell-based; conditions: in some cases mean values from individual determinations
T1 construct: expressed in transfected cells; host or cells: recombinant reporter cell line
T1 sequence (P19686 1-690): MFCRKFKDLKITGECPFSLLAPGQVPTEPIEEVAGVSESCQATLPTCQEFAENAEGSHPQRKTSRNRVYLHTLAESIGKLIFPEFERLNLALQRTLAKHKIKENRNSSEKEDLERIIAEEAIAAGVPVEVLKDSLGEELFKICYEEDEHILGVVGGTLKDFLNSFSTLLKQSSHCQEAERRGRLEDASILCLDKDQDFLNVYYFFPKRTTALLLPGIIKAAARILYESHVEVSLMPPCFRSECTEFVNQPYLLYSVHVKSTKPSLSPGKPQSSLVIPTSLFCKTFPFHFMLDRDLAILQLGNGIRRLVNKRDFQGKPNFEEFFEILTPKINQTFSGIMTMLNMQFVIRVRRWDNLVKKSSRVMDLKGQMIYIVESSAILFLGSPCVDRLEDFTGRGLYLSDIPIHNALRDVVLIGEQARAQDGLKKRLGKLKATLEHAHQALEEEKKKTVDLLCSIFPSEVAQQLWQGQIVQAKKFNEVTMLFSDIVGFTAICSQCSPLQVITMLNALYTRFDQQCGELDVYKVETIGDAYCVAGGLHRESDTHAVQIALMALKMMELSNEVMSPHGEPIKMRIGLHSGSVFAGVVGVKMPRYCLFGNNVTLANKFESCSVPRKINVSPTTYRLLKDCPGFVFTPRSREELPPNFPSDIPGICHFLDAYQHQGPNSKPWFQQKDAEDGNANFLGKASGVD
T1 sequence (P20595 1-619): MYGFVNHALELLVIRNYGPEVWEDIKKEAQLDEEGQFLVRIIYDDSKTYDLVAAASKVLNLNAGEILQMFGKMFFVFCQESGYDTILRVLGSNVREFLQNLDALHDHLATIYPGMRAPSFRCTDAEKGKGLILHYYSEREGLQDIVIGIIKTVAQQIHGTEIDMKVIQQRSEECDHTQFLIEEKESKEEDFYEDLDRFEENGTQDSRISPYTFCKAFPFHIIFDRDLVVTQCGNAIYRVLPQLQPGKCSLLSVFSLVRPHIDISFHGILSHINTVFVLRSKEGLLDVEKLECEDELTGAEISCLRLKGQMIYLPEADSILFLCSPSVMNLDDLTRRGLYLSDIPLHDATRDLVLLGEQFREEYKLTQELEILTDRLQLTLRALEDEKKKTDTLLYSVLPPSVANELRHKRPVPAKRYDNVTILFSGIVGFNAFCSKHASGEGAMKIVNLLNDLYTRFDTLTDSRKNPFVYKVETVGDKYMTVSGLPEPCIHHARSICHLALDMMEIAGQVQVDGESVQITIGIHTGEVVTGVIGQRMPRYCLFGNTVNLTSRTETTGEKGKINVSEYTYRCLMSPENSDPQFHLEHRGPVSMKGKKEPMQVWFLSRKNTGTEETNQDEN
Summary of the method: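 Rat recombinant guanylate cyclase reporter cell line measures cellular activity. Value reported as MEC (minimal effective concentration), sometimes averaged over individual determinations.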

| Structure (SMILES) | MEC (minimal effective concentration) |
| --- | --- |
| Cc1cc(OCc2c(F)cccc2F)c2nc(C)c(C(=O)NCC(N)c3csc(C)n3)n2c1 (racemic) [Example 415, rac-N-[2-amino-2-(2-methyl-1,3-thiazol-4-yl)ethyl]-8-[(2,6-difluorobenzyl)oxy]-2,6-dimethylimidazo[1,2-a]pyridine-3-carboxamide triformate] | 5.5 µM |
| Cc1cc(OCc2c(F)cccc2F)c2nc(C)c(C(=O)NCCC(C)(C)N)n2c1 [Example 114, N-(3-amino-3-methylbutyl)-8-[(2,6-difluorobenzyl)oxy]-2,6-dimethylimidazo[1,2-a]-pyridine-3-carboxamide] | 0.30 µM |
| Cc1nc2c(OCc3c(F)cccc3F)cc(F)cn2c1C(=O)NC(CN)c1ccc(F)c(F)c1 (stereo not drawn) [Example 53, ent-N-[2-Amino-1-(3,4-difluorophenyl)ethyl]-8-[(2,6-difluorobenzyl)oxy]-6-fluoro-2-methyl-imidazo[1,2-a]pyridine-3-carboxamide] | 0.30 µM |
| Cc1cc(OCc2c(F)cccc2F)c2nc(C)c(C(=O)NCC(C)(N)Cc3ncn(-c4cc(C)on4)n3)n2c1 (racemic) [Example 321, rac-N-{2-amino-2-methyl-3-[1-(5-methyl-1,2-oxazol-3-yl)-1H-1,2,4-triazol-3-yl]propyl}-8-[(2,6-difluorobenzyl)oxy]-2,6-dimethylimidazo[1,2-a]pyridine-3-carboxamide] | 0.30 µM |
| Cc1nc2c(OCc3c(F)cccc3F)cccn2c1C(=O)NC(CN)c1ccc(Cl)cc1 (single isomer, unassigned; enantiomer b) [Example 15, ent-N-[2-Amino-1-(4-chlorophenyl)ethyl]-8-[(2,6-difluorobenzyl)oxy]-2-methylimidazo[1,2-a]-pyridine-3-carboxamide (Enantiomer B)] | 0.53 µM |
| Cc1nc2c(OCc3c(F)cccc3F)cccn2c1C(=O)NC1CNCc2ccccc21 (single isomer, unassigned; ent-8) [Example 110, ent-8-[(2,6-difluorobenzyl)oxy]-2-methyl-N-(1,2,3,4-tetrahydroisoquinolin-4-yl)imidazo[1,2-a]pyridine-3-carboxamide] | 0.30 µM |
| COCCNCCNC(=O)c1c(C)nc2c(OCc3c(F)cccc3F)cccn12 [Example 144, 8-[(2,6-difluorobenzyl)oxy]-N-{2-[(2-methoxyethyl)amino]ethyl}-2-methylimidazo[1,2-a]pyridine-3-carboxamide] | 3.00 µM |
| Cc1nc2c(OCc3c(F)cccc3F)cccn2c1C(=O)NCC(C)(C)N [Example 72, N-(2-Amino-2-methylpropyl)-8-[(2,6-difluorobenzyl)oxy]-2-methylimidazo[1,2-a]pyridine-3-carboxamide] | 0.30 µM |
| Cc1nc2c(OCc3ccccc3F)cccn2c1C(=O)NC(CN)c1ccc(F)c(F)c1 (stereo not drawn) [Example 98, ent-N-[2-Amino-1-(3,4-difluorophenyl)ethyl]-8-[(2-fluorobenzyl)oxy]-2-methylimidazo[1,2-a]-pyridine-3-carboxamide] | 1.00 µM |
| Cc1cc(OCc2c(F)cccc2F)c2nc(C)c(C(=O)NCC(N)c3ccc4c(c3)OCCO4)n2c1 (racemic) [Example 371, rac-N-[2-amino-2-(2,3-dihydro-1,4-benzodioxin-6-yl)ethyl]-8-[(2,6-difluorobenzyl)oxy]-2,6-dimethylimidazo[1,2-a]pyridine-3-carboxamide] | 3.00 µM |
| Cc1nc2c(OCc3c(F)cccc3F)cccn2c1C(=O)NC(CN)CCCC(F)(F)F (single isomer, unassigned; enantiomer b) [Example 6, ent-N-(1-Amino-6,6,6-trifluorohexan-2-yl)-8-[(2,6-difluorobenzyl)oxy]-2-methylimidazo[1,2-a]-pyridine-3-carboxamide (Enantiomer B)] | 0.23 µM |
| Cc1nc2c(OCC3CCCCC3)cccn2c1C(=O)NC(CN)c1ccc(F)cc1F (stereo not drawn) [Example 45, ent-N-[2-Amino-1-(2,4-difluorophenyl)ethyl]-8-(cyclohexylmethoxy)-2-methylimidazo[1,2-a]-pyridine-3-carboxamide] | 1.00 µM |
| COC(=O)c1cccc(C(N)CNC(=O)c2c(C)nc3c(OCc4c(F)cccc4F)cc(C)cn23)c1 (racemic) [Example 399, rac-Methyl 3-{1-amino-2-[({8-[(2,6-difluorobenzyl)oxy]-2,6-dimethylimidazo[1,2-a]pyridin-3-yl}carbonyl)amino]ethyl}benzoate] | 1.00 µM |
| CCCC(C)(N)CNC(=O)c1c(C)nc2c(OCc3cccc(F)c3)cc(C)cn12 (racemic) [Example 348, rac-N-(2-amino-2-methylpentyl)-8-[(3-fluorobenzyl)oxy]-2,6-dimethylimidazo[1,2-a]pyridine-3-carboxamide] | 1.00 µM |
| Cc1nc2c(OCc3c(F)cccc3F)cccn2c1C(=O)NC1CC2CCCC(C1)N2C1CC1 (centres unmarked) [Example 1, N-(9-Cyclopropyl-9-azabicyclo[3.3.1]non-3-yl)-8-[(2,6-difluorobenzyl)oxy]-2-methylimidazo[1,2-a]pyridine-3-carboxamide] | 0.10 µM |
| Cc1cc(OCc2c(F)cccc2F)c2nc(C)c(C(=O)NC3CCC(N)C3)n2c1 (single isomer, unassigned) [Example 309, ent-N-(3-aminocyclopentyl)-8-[(2,6-difluorobenzyl)oxy]-2,6-dimethylimidazo[1,2-a]pyridine-3-carboxamide] | 0.30 µM |
| Cc1cc(OCc2c(F)cccc2F)c2nc(C)c(C(=O)NCC(N)c3cnn(C)c3)n2c1 (racemic) [Example 370, rac-N-[2-amino-2-(1-methyl-1H-pyrazol-4-yl)ethyl]-8-[(2,6-difluorobenzyl)oxy]-2,6-dimethylimidazo[1,2-a]pyridine-3-carboxamide] | 3.00 µM |
| CCOCC(CN)NC(=O)c1c(C)nc2c(OCc3c(F)cccc3F)cccn12 (single isomer, unassigned) [Example 56, ent-N-(1-amino-3-ethoxypropan-2-yl)-8-[(2,6-difluorobenzyl)oxy]-2-methylimidazo[1,2-a]-pyridine-3-carboxamide] | 1.00 µM |
| Cc1nc2c(OCc3c(F)cccc3F)cccn2c1C(=O)NC(C)[C@@H](C)N (single isomer, unassigned) [Example 177] | 1.00 µM |
| Cc1cc(OCc2c(F)cccc2F)c2nc(C)c(C(=O)NCC(C)(C)NCC(F)(F)F)n2c1 [Example 94, 8-[(2,6-Difluorobenzyl)oxy]-2,6-dimethyl-N-{2-methyl-2-[(2,2,2-trifluoroethyl)amino]propyl}-imidazo[1,2-a]pyridine-3-carboxamide] | 0.30 µM |
| Cc1cc(OCc2c(F)cccc2F)c2nc(C)c(C(=O)N[C@@H]3CC[C@](C)(N)C3(C)C)n2c1 [Example 324, N-[(1R,3S)-3-amino-2,2,3-trimethylcyclopentyl]-8-[(2,6-difluorobenzyl)oxy]-2,6-dimethylimidazo[1,2-a]pyridine-3-carboxamide] | 1.00 µM |
| Cc1nc2c(OCc3c(F)cccc3F)cccn2c1C(=O)NC1CCNc2ccc(C(F)(F)F)cc21 (single isomer, unassigned; ent-8) [Example 111, ent-8-[(2,6-difluorobenzyl)oxy]-2-methyl-N-[6-(trifluoromethyl)-1,2,3,4-tetrahydroquinolin-4-yl]imidazo[1,2-a]pyridine-3-carboxamide] | 1.00 µM |
| Cc1cc(OCc2c(F)cccc2F)c2nc(C)c(C(=O)NC(CN)c3cccc(C(F)(F)F)c3)n2c1 (racemic) [Example 394, rac-N-{2-amino-1-[3-(trifluoromethyl)phenyl]ethyl}-8-[(2,6-difluorobenzyl)oxy]-2,6-dimethylimidazo[1,2-a]pyridine-3-carboxamide] | 0.30 µM |
